# How the values were obtained:
# Test in all cases: Test B pre-/postemergence plant response
# Format in all cases: in vivo
# [1] = test system: Italian ryegrass (Lolium multiflorum)
# Summary of the method: (§1)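 Preemergence and postemergence (plants 2-18 cm, 1- to 4-leaf stage) applications used test chemicals in a non-phytotoxic solvent with surfactant. Plants were held in a greenhouse 13 to 15 days, then rated visually against controls on a 0-100 scale (0 no effect, 100 complete control).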
# [2] = test system: Russian thistle (Salsola iberica); conditions: Preemergence
# Summary of the method: as §1
# [3] = test system: common (oilseed) sunflower (Helianthus annuus); conditions: Preemergence
# Summary of the method: as §1
# [4] = test system: common ragweed (Ambrosia elation)
# Summary of the method: as §1
# corn (Zea mays) = test system: corn (Zea mays)
# Summary of the method: as §1
# [5] = test system: eastern black (E.B.) nightshade (Solanum ptycanthum); conditions: Preemergence
# Summary of the method: as §1
# [6] = test system: giant foxtail (Setaria faberii)
# Summary of the method: as §1
# [7] = test system: goosegrass (Eleusine indica)
# Summary of the method: as §1
# [8] = test system: green foxtail (Setaria viridis)
# Summary of the method: as §1
# [9] = test system: johnsongrass (Sorghum halepense)
# Summary of the method: as §1
# [10] = test system: pigweed (Amaranthus retroflexus)
# Summary of the method: as §1
# [11] = test system: surinam grass (Brachiaria decumbens)
# Summary of the method: as §1
# [12] = test system: yellow nutsedge (Cyperus esculentus)
# Summary of the method: as §1
# kochia (Kochia scoparia) = test system: kochia (Kochia scoparia)
# Summary of the method: as §1
# [13] = Preemergence, 31 g ai/ha, scale 0 to 100 (0 no effect, 100 complete control)
# [14] = Preemergence, 62 g ai/ha, scale 0 to 100
# [15] = Preemergence, 8 g ai/ha, scale 0 to 100
# [16] = Preemergence, 16 g ai/ha, scale 0 to 100
# [17] = 31 g ai/ha, scale 0 to 100 (0 no effect, 100 complete control)
# [18] = Preemergence, 31 g ai/ha, 0 to 100 scale, 0 no effect, 100 complete control
# [19] = Postemergence, 31 g ai/ha, scale 0 to 100, 0 no effect, 100 complete control
# [20] = Postemergence, 62 g ai/ha, scale 0 to 100
# [21] = Postemergence, 125 g ai/ha, scale 0 to 100
# [22] = Postemergence, 250 g ai/ha, scale 0 to 100
# [23] = Preemergence, 125 g ai/ha, scale 0 to 100
# [24] = Preemergence, 250 g ai/ha, scale 0 to 100
# [25] = 31 g ai/ha, 0 to 100 scale, 0 no effect, 100 complete control
compound,measurement,setting,value
Cc1cc(-c2ccc(Cl)cc2)nn1-c1c(OS(=O)(=O)c2ccc(Cl)s2)cnn(C)c1=O [Compound 55],"Plant response rating, Ryegrass, Italian",[1]; [13],90
same,"Plant response rating, Ryegrass, Italian",[1]; [14],100
same,"Ryegrass, Italian plant response rating",[1]; [15],60
same,"Ryegrass, Italian plant response rating",[1]; [16],70
same,"Plant response rating, Russian Thistle",[2]; [17],0
same,"Plant response rating, Russian Thistle","[2]; 62 g ai/ha, scale 0 to 100",0
same,Russian Thistle plant response rating,"[2]; 8 g ai/ha, scale 0 to 100",0
same,Russian Thistle plant response rating,"[2]; 16 g ai/ha, scale 0 to 100",0
same,"Plant response rating, Sunflower",[3]; [17],0
same,"Plant response rating, Sunflower","[3]; 62 g ai/ha, scale 0 to 100",0
same,Sunflower plant response rating,"[3]; 8 g ai/ha, scale 0 to 100",0
same,Sunflower plant response rating,"[3]; 16 g ai/ha, scale 0 to 100",0
same,"Plant response rating, Ragweed",[4]; [13],0
same,"Plant response rating, Ragweed",[4]; [14],0
same,Ragweed plant response rating,[4]; [15],0
same,Ragweed plant response rating,[4]; [16],0
same,"Plant response rating, Corn",corn (Zea mays); [18],80
same,"Plant response rating, Corn",corn (Zea mays); [14],95
same,Corn plant response rating,corn (Zea mays); [15],0
same,Corn plant response rating,corn (Zea mays); [16],0
same,"Plant response rating, Nightshade, E. B.",[5]; [17],80
same,"Plant response rating, Nightshade, E. B.","[5]; 62 g ai/ha, scale 0 to 100",100
same,"Nightshade, E. B. plant response rating","[5]; 8 g ai/ha, scale 0 to 100",0
same,"Nightshade, E. B. plant response rating","[5]; 16 g ai/ha, scale 0 to 100",0
same,"Plant response rating, Foxtail, Giant",[6]; [18],100
same,"Plant response rating, Foxtail, Giant",[6]; [14],100
same,"Foxtail, Giant plant response rating",[6]; [15],90
same,"Foxtail, Giant plant response rating",[6]; [16],98
same,"Plant response rating, Goosegrass",[7]; [18],98
same,"Plant response rating, Goosegrass",[7]; [14],100
same,Goosegrass plant response rating,[7]; [15],55
same,Goosegrass plant response rating,[7]; [16],90
same,"Plant response rating, Foxtail, Green",[8]; [18],100
same,"Plant response rating, Foxtail, Green",[8]; [14],100
same,"Foxtail, Green plant response rating",[8]; [15],0
same,"Foxtail, Green plant response rating",[8]; [16],90
same,"Plant response rating, Johnsongrass",[9]; [18],70
same,"Plant response rating, Johnsongrass",[9]; [14],95
same,Johnsongrass plant response rating,[9]; [15],0
same,Johnsongrass plant response rating,[9]; [16],15
same,"Plant response rating, Pigweed",[10]; [13],0
same,"Plant response rating, Pigweed",[10]; [14],0
same,Pigweed plant response rating,[10]; [15],0
same,Pigweed plant response rating,[10]; [16],0
same,"Plant response rating, Surinam Grass",[11]; [13],100
same,"Plant response rating, Surinam Grass","[11]; Preemergence, 62 g ai/ha, 0 to 100 scale, 0 no effect, 100 complete control",100
same,Surinam Grass plant response rating,[11]; [15],15
same,Surinam Grass plant response rating,[11]; [16],50
same,"Plant response rating, Nutsedge, Yellow",[12]; [13],0
same,"Plant response rating, Nutsedge, Yellow",[12]; [14],0
same,"Nutsedge, Yellow plant response rating",[12]; [15],0
same,"Nutsedge, Yellow plant response rating",[12]; [16],0
"5-[3-(4-chlorophenyl)-5-methyl-1H-pyrazol-1-yl]-1,6-dihydro-1-methyl-6-oxo-4-pyridazinyl-1-methylethyl carbonate [Compound 7]","Plant response rating, Ryegrass, Italian",[1]; [19],95
same,"Plant response rating, Ryegrass, Italian",[1]; [20],100
same,"Plant response rating, Ryegrass, Italian",[1]; [21],100
same,"Plant response rating, Ryegrass, Italian",[1]; [22],100
same,"Plant response rating, Ryegrass, Italian",[1]; [18],90
same,"Plant response rating, Ryegrass, Italian",[1]; [14],100
same,"Plant response rating, Ryegrass, Italian",[1]; [23],100
same,"Plant response rating, Ryegrass, Italian",[1]; [24],100
same,"Plant response rating, Sunflower",[3]; [25],0
same,"Plant response rating, Sunflower","[3]; 62 g ai/ha, scale 0 to 100",0
same,"Plant response rating, Sunflower","[3]; 125 g ai/ha, scale 0 to 100",0
same,"Plant response rating, Sunflower","[3]; 250 g ai/ha, scale 0 to 100",0
same,"Plant response rating, Ragweed",[4]; [19],0
same,"Plant response rating, Ragweed",[4]; [20],0
same,"Plant response rating, Ragweed",[4]; [21],0
same,"Plant response rating, Ragweed",[4]; [22],0
same,"Plant response rating, Ragweed",[4]; [18],0
same,"Plant response rating, Ragweed",[4]; [14],0
same,"Plant response rating, Ragweed",[4]; [23],0
same,"Plant response rating, Ragweed",[4]; [24],20
same,"Plant response rating, Corn",corn (Zea mays); [19],90
same,"Plant response rating, Corn",corn (Zea mays); [20],90
same,"Plant response rating, Corn",corn (Zea mays); [21],90
same,"Plant response rating, Corn",corn (Zea mays); [22],90
same,"Plant response rating, Corn",corn (Zea mays); [18],90
same,"Plant response rating, Corn",corn (Zea mays); [14],95
same,"Plant response rating, Corn",corn (Zea mays); [23],98
same,"Plant response rating, Corn",corn (Zea mays); [24],100
same,"Plant response rating, Nightshade, E. B.",[5]; [25],30
same,"Plant response rating, Nightshade, E. B.","[5]; 62 g ai/ha, scale 0 to 100",30
same,"Plant response rating, Nightshade, E. B.","[5]; 125 g ai/ha, scale 0 to 100",100
same,"Plant response rating, Nightshade, E. B.","[5]; 250 g ai/ha, scale 0 to 100",100
same,"Plant response rating, Foxtail, Giant",[6]; [19],98
same,"Plant response rating, Foxtail, Giant",[6]; [20],100
same,"Plant response rating, Foxtail, Giant",[6]; [21],100
same,"Plant response rating, Foxtail, Giant",[6]; [22],100
same,"Plant response rating, Foxtail, Giant",[6]; [18],100
same,"Plant response rating, Foxtail, Giant",[6]; [14],100
same,"Plant response rating, Foxtail, Giant",[6]; [23],100
same,"Plant response rating, Foxtail, Giant",[6]; [24],100
same,"Plant response rating, Goosegrass",[7]; [19],95
same,"Plant response rating, Goosegrass",[7]; [20],100
same,"Plant response rating, Goosegrass",[7]; [21],100
same,"Plant response rating, Goosegrass",[7]; [22],100
same,"Plant response rating, Goosegrass",[7]; [18],85
same,"Plant response rating, Goosegrass",[7]; [14],90
same,"Plant response rating, Goosegrass",[7]; [23],100
same,"Plant response rating, Goosegrass",[7]; [24],100
same,"Plant response rating, Foxtail, Green",[8]; [19],75
same,"Plant response rating, Foxtail, Green",[8]; [20],100
same,"Plant response rating, Foxtail, Green",[8]; [21],100
same,"Plant response rating, Foxtail, Green",[8]; [22],100
same,"Plant response rating, Foxtail, Green",[8]; [18],100
same,"Plant response rating, Foxtail, Green",[8]; [14],100
same,"Plant response rating, Foxtail, Green",[8]; [23],100
same,"Plant response rating, Foxtail, Green",[8]; [24],100
same,"Plant response rating, Johnsongrass",[9]; [21],0
same,"Plant response rating, Johnsongrass",[9]; [22],0
same,"Plant response rating, Johnsongrass",[9]; [18],75
same,"Plant response rating, Johnsongrass",[9]; [14],98
same,"Plant response rating, Johnsongrass",[9]; [23],100
same,"Plant response rating, Johnsongrass",[9]; [24],100
same,"Plant response rating, Kochia",kochia (Kochia scoparia); [19],0
same,"Plant response rating, Kochia",kochia (Kochia scoparia); [20],0
same,"Plant response rating, Kochia",kochia (Kochia scoparia); [21],0
same,"Plant response rating, Kochia",kochia (Kochia scoparia); [22],10
same,"Plant response rating, Kochia",kochia (Kochia scoparia); [18],0
same,"Plant response rating, Kochia",kochia (Kochia scoparia); [14],0
same,"Plant response rating, Kochia",kochia (Kochia scoparia); [23],0
same,"Plant response rating, Kochia",kochia (Kochia scoparia); [24],0
same,"Plant response rating, Pigweed",[10]; [19],0
same,"Plant response rating, Pigweed",[10]; [20],0
same,"Plant response rating, Pigweed",[10]; [21],0
same,"Plant response rating, Pigweed",[10]; [22],20
same,"Plant response rating, Pigweed",[10]; [18],85
same,"Plant response rating, Pigweed",[10]; [14],100
same,"Plant response rating, Pigweed",[10]; [23],100
same,"Plant response rating, Surinam Grass",[11]; [19],100
same,"Plant response rating, Surinam Grass",[11]; [20],100
same,"Plant response rating, Surinam Grass",[11]; [21],100
same,"Plant response rating, Surinam Grass",[11]; [22],100
same,"Plant response rating, Surinam Grass",[11]; [18],98
same,"Plant response rating, Surinam Grass",[11]; [14],100
same,"Plant response rating, Surinam Grass",[11]; [23],100
same,"Plant response rating, Surinam Grass",[11]; [24],100
same,"Plant response rating, Nutsedge, Yellow",[12]; [19],0
same,"Plant response rating, Nutsedge, Yellow",[12]; [20],0
same,"Plant response rating, Nutsedge, Yellow",[12]; [21],0
same,"Plant response rating, Nutsedge, Yellow",[12]; [22],0
same,"Plant response rating, Nutsedge, Yellow",[12]; [18],0
same,"Plant response rating, Nutsedge, Yellow",[12]; [14],0
same,"Plant response rating, Nutsedge, Yellow",[12]; [23],0
same,"Plant response rating, Nutsedge, Yellow",[12]; [24],0
